Reference: patent US8937050B2, “Methods and compositions for treatment of autism” (The Johns Hopkins University, priority 2011, dated 2015)

Key:
normal human fibroblasts = assay: Quantitative in-cell western analysis with anti-ATP5B; assay type: cell-based; details: six days, FIG. 2B
Procedure: The immunostaining of primary human fibroblasts with anti-ATP5B, DRAQ5 (Cell Signaling Technologies, Danvers, Mass.; a cellular DNA stain to normalize cell number), and secondary antibody IRDye 800CW donkey anti-mouse IgG (Li-cor Biosciences, Lincoln, Nebr.) was identical to the indirect immunofluorescence procedure described above and performed in duplicate. Imaging and quantification were performed using the Odyssey Imager (L1-cor Biosciences).
In FIGS. 2A-B, the JNK inhibitor SP600125 (10 μM+inh) was utilized. […] Normal human fibroblasts were treated with each of the small four molecules with or without SP600125 for six days. Quantitative in-cell western analyses were performed using anti-ATP5B.

human XALD fibroblasts = details: McGuinness et al., 2003; cited from earlier work
[1] = system: ALD (Abcd1−/Y) mouse model; details: ALD (Abcd1−/Y) mouse model in vivo; McGuinness et al., 2003; cited from earlier work
[2] = system: X-linked Adrenoleukodystrophy; details: McGuiness et al., 2003; cited from earlier work
NFE2L2, HMOX1, and SOD2 = assay: RT-PCR of antioxidant genes; assay type: cell-based, human; details: for HMOX1 mRNA levels / NFE2L2 mRNA levels / SOD2 mRNA levels: normal human fibroblasts, 18 hours, FIG. 5C
Procedure: (§1) Following the manufacturer's protocols, DNase I-treated cDNA was synthesized using Superscript III or Thermoscript reverse transcriptase (Invitrogen). PCR reactions were performed in duplicate on the Roche Lightcycler 3.5 (Basel, Switzerland) or the Bio-Rad iCycler (Hercules, Calif.) using Quantitech SYBR green PCR mix (Qiagen, Valencia, Calif.). GeNorm software calculated a normalization factor for each sample using the relative amounts of at least two of the following reference genes, β2-microglobulin, glyceraldehyde-6-phosphate, actin, and/or eukaryotic elongation factor 1A (Vandesompele et al., 2002).
The expression of three key components was examined—(i) nuclear factor erythroid 2-like 2 (NFE2L2), (ii) heme oxygenase 1 (HMOX1), and (iii) superoxide dismutase 2 (SOD2). […] Normal human fibroblasts were treated for 18 hours. The expression of NFE2L2, HMOX1, and SOD2 was measured as described in FIG. 2E.

Ischemia = details: Qi et al., 2004, Yoon et al., 2008; cited from earlier work
[3] = system: HSPA1A (HSP70), DNAJC3 (HSP40), HSP90AA1 (HSP90); assay: RT-PCR of heat shock response (HSR) genes; assay type: cell-based, human; details: for transcription of HSPA1A (HSP70): FIG. 3A
Procedure: as §1
Expression of key components of the HSR, UPR, the autophagic response, and the antioxidant response were monitored at the transcriptional, translational, and/or post-translational level. […] Due to the transient nature of these responses, several components of each pathway were monitored at various time points within a 24 hour treatment. At least two normal human fibroblast lines were tested in three or more independent experiments. […] The average of the maximal increase in protein expression within a 24 hour time frame was also compared to the untreated sample. Activation of each pathway was assessed by an increase in one or more components of each pathway.
To evaluate its activation, the expression of heat shock protein (HSP) 40, HSP 70, and HSP 90 family members was monitored. […] Normal human fibroblasts were treated and the mRNA expression of HSPA1A (HSP70), DNAJC3 (HSP40), and HSP90AA1 (HSP90) was measured and plotted as in FIG. 2E.

JNK pathway = assay: Immunoblot analysis of JNK phosphorylation; assay type: cell-based; details: normal human fibroblasts, within 24 hours; FIG. 2F
Procedure: Normal human fibroblasts were treated at various time points. Treatment was initiated at the indicated times prior to collection. The average of the maximum protein expression (within 24 hours) for three or more independent experiments is shown as fold change (drug treated/untreated). Actin (43 kDa) was the loading control. M denotes the marker lane. […] The * statistically significant increase in a measurement between drug treated and untreated or control samples or a statistically significant decrease in a measurement between drug treated and drug treated samples in the presence of SP600125 (p≦0.05) (n≧3 independent experiments unless otherwise noted) (Bars=SEM).

[4] = system: spinal muscular atrophy fibroblasts; assay: Mitotracker Red CMXROS staining; assay type: cell-based, human; details: 2.5 mM 4PBA, HU, 100 nM TSA or 2.5 mM SFN for 5 days; FIG. 7
Procedure: SMA type I (GM00232) fibroblasts were treated with 2.5 mM 4PBA, 300 mM HU, 100 nM TSA or 2.5 mM SFN for 5 days, live stained with 25 nM Mitotracker Red CMXROS (Invitrogen) in pre-warmed MEM media for 15 min at 37° C. in a CO2 incubator. Stained cells were washed with pre-warmed MEM, washed with PBS and excess PBS was removed. The cells were examined under the microscope at ×80.
Spinal muscular atrophy fibroblasts were treated with 2.5 mM 4PBA, 300 mM HU, 100 nM TSA or 2.5 mM SFN for 5 days (×80 magnification).

human recombinant SIRT1 = target: T1, human recombinant SIRT1 (Homo sapiens, UniProt Q96EB6); assay: Fluorescence-based SIRT1 activity assay; assay type: biochemical; details: for SIRT1 activity: low and high (10 times) concentration, FIG. 9
T1 construct: purchased Cayman Chemical Company 10010401
T1 sequence (Q96EB6 1-747): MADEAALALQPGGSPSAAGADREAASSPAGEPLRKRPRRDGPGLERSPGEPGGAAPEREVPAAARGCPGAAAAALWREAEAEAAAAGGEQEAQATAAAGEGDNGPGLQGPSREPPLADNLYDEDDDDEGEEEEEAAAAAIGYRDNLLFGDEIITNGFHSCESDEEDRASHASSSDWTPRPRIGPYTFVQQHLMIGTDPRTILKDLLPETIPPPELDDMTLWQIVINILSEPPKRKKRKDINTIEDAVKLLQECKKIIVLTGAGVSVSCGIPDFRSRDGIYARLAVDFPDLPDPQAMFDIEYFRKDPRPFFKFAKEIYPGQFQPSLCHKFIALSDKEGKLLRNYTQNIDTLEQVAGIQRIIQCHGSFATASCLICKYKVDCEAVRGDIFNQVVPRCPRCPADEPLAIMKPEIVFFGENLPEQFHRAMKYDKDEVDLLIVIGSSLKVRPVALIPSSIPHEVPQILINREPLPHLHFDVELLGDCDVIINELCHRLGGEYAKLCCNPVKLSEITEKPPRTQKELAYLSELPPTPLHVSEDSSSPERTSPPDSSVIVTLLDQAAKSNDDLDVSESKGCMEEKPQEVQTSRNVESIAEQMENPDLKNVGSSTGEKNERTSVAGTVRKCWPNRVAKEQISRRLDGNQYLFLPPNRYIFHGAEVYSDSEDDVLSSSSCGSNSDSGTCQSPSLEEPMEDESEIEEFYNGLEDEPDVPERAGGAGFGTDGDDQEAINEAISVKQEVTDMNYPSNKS
Procedure: A fluorescence-based SIRT1 activity assay was performed in triplicate following the manufacturer's protocol (10010401; Cayman Chemical Company, Ann Arbor, Mich., USA). The percent developer interference was below 3% for each small molecule. The percent fluorophore interference was below 9% for each small molecule. The acceptable interference values were ≦10%.
To determine whether SIRT1 activation was a common biochemical activity of the small molecules under study, a fluorescence-based in vitro SIRT1 activity assay was performed with two concentrations of each drug: that used to treat normal primary human fibroblasts in the experiments reported here (low), and 10 times that concentration, which is lethal in cell culture (high). […] This was a non-cell-based assay, and therefore, it is difficult to determine the effects of 4PBA and SFN on SIRT1 activity in vivo. Regardless, while SIRT1 activation may play a role in the induction of cellular stress responses (Anastasiou et al., 2006), direct biochemical activation or inhibition of SIRT1 is not necessary for the common pharmacological induction of the adaptive cell survival response by all four small molecules.
SIRT1 activity assay. SIRT1 activity was measured by incubating an acetylated lysine substrate with human recombinant SIRT1, cosubstrate NAD+ and the indicated concentration of each small molecule. The percent inhibition of SIRT1 is plotted. (Bars=SEM for triplicate measurements; *p≦0.05; paired t-test).

Cystic Fibrosis = details: Choo-Kang et al., 2001, Hutt et al., 2010; cited from earlier work
SMN protein = assay: Immunoblot analyses of SMN protein expression in spinal muscular atrophy fibroblasts; assay type: cell-based, human
Procedure: Cell lysates were collected in mammalian protein extraction reagent (m-PER; Thermo Scientific, Rockford, Ill.) plus 1×protease inhibitor (Sigma-Aldrich) and 1×Halt phosphatase inhibitor (Thermo Scientific). Denatured SDS-PAGE and immunoblot analyses were performed using the following antibodies: phosphorylated JNK and β-actin from Santa Cruz Biotechnology, HSP70, HSP90, BIP, phosphorylated eIF2α, and XBP1 from Cell Signaling, APG8 (Abgent, San Diego, Calif.), and SOD2 (Stressgen, Ann Arbor, Mich.). Quantitation was performed using a Fuji Intelligent Dark box II, FUJI LAS-1000 Lite software and Image Gauge v4.22 software (Tokyo, Japan).
Spinal muscular atrophy type I (SMA I; GM09677, n=7) or type III (SMA III; 2906, n=2) fibroblasts were treated with either 1.5 mM SFN or 0.5-2 mM SFN, respectively, for 48-72 hr. The average of the relative expression of SMN protein (39 kDa) is plotted. Actin (43 kDa) was used as a loading control.
Spinal muscular atrophy type I (SMA I; GM09677) fibroblasts were treated with either […] HU (n=1) or 1.5 mM SFN (n≧3) in the presence or absence of 10 mM SP600125 (JNK inhibitor), 1 mM 3-methyladenine (APG inhibitor), 2-4 mg/ml antimycin A (MITO inhibitor) or 2 mM sirtinol (SIRT1 inhibitor) for 48 h. SMN protein expression was measured by quantitative immunoblot analyses using actin as a loading control. Fold increases in SMN protein expression are plotted and represented numerically in the table below the graph. Untreated values are normalized to 1. (*P≦0.05; bars=SEM).

[5] = separate experiments, SMA I GM09677, 300 mM HU or 1.5 mM SFN, 48 h, FIG. 8D

| Molecule | mitochondrial mass (ATP5B) compared to untreated cells (normal human fibroblasts) | abnormally high levels of very long chain fatty acids (VLCFA) (human XALD fibroblasts) | abnormally high levels of very long chain fatty acids (VLCFA) [1] | Therapeutic Effect [2] | HMOX1 mRNA levels (NFE2L2, HMOX1, and SOD2) | NFE2L2 mRNA levels (NFE2L2, HMOX1, and SOD2) | SOD2 mRNA levels (NFE2L2, HMOX1, and SOD2) | Therapeutic Effect (Ischemia) | transcription of HSPA1A (HSP70) ([3]; normal human fibroblasts) | JNK pathway (JNK phosphorylation) (JNK pathway) | mitochondrial biogenesis (Mitotracker staining) [4] | Therapeutic Effect (Cystic Fibrosis) | SMN protein expression increase (SMN protein; [5]) | SIRT1 activity (human recombinant SIRT1) | also measured |
| --- | --- | --- | --- | --- | --- | --- | --- | --- | --- | --- | --- | --- | --- | --- | --- |
| 4-phenylbutyrate [4PBA] | 2.4 fold | normalized | normalized | decrease very long chain | significantly decreased | increased | increased | protection via antioxidant | increased | activated | induced | increase proper protein |  |  | inhibition of SIRT1 activity (human recombinant SIRT1; 50 mM, high): 54% |
| NC(=O)NO [HU, hydroxyurea] | 1.8 fold |  |  |  | significantly increased | increased | increased |  | not stimulated | activated | induced |  | 1.4 fold | no effect |  |
| C[S@@+]([O-])CCCCN=C=S [SFN, 1-isothiocyanato-4R-(methylsulfinyl)butane] | 2.2 fold |  |  |  | significantly increased | increased | increased | protection via antioxidant | increased | activated | induced |  | 1.46 fold |  | expression of HMOX1 increase (NFE2L2, HMOX1, and SOD2; in vitro sulforaphane studies): 6 fold; expression of NFE2L2 increase (NFE2L2, HMOX1, and SOD2; in vitro sulforaphane studies): 3 fold; expression of SOD2 increase (NFE2L2, HMOX1, and SOD2; in vitro sulforaphane studies): 4 fold; SMN protein expression increase (SMN protein; spinal muscular atrophy type I fibroblasts (GM09677), 1.5 mM SFN, 48-72 hr., FIG. 8C): 1.57 fold; SMN protein expression increase (SMN protein; spinal muscular atrophy type III fibroblasts (2906), 0.5-2 mM SFN, 48-72 hr., FIG. 8C): 1.64 fold; transcription of HSP40 increase ([3]; in vitro sulforaphane studies): 3 fold; transcription of HSP70 increase ([3]; in vitro sulforaphane studies): 7 fold; transcription of HSP 90 increase ([3]; in vitro sulforaphane studies): 3 fold; mRNA expression of heat-shock proteins genes increase ([3]; normal human fibroblasts, 5 micromolar (μM)): 3-7 fold; inhibition at 5000 µM (human recombinant SIRT1; 5 mM): 14%; inhibition at 50000 µM (human recombinant SIRT1; 50 mM): 40% |
| CC(/C=C/C(=O)NO)=C\[C@@H](C)C(=O)c1ccc(N(C)C)cc1 [TSA, trichostatin A] | 2.5 fold | normalized | normalized | decrease very long chain | significantly increased | increased | increased |  | increased | activated | induced | increase proper protein |  | no effect |  |
